Laboratory results taken from patent US9752175B2, “Systems and methods to detect biofilm streamer growth and their uses” (The Trustees of Princeton University, priority 2014, dated 2017).

System: Pseudomonas aeruginosa PA14
Experiment: Microfluidic pressure-driven flow assay (biofilm streamer clogging)
Assay type: cell-based
Settings: low concentration of tetracycline; microfluidic channel
Description: Overnight P. aeruginosa cultures were backdiluted 1:100 in tryptone broth and grown to midlogarithmic phase (OD600=0.5). This culture (100 mL) was used to fill a reservoir connected via Tygon tubing (inner diameter 2.4 mm) to a microfluidic channel made from polydimethylsiloxane (PDMS) (Sylgard 184, Dow Corning). The channels (FIG. 1A) are 90 μm high, 200 μm wide, and constitute the narrowest part of the experimental flow system. Analogous to the inlet, the outlet of the microfluidic channel is also connected to Tygon tubing, and the effluent culture is collected in a dish on an analytical balance. By changing the elevation of the culture reservoir above the effluent collection dish, the applied pressure difference Δp is altered, which alters the flow rate through the channel. Operating this system for 24 h with H2O at a flow rate of 15.7±0.05 μL/min reduced the liquid level in the reservoir to decrease the pressure drop across the channel by 2.1%. […]
The weight of the effluent culture was measured every 4 s on an analytical balance (GD503, Sartorius), controlled with LabVIEW. […]
where the density was assumed to be the density of water, 1 kg/L. T and τ were calculated by fitting the function
[formula] to the measured flow rate Q(t), where Q0 is the flow rate before the clogging transition. […]

CN(C)[C@@H]1C(O)=C(C(N)=O)C(=O)[C@@]2(O)C(O)=C3C(=O)c4c(O)cccc4[C@@](C)(O)[C@H]3C[C@@H]12 [tetracycline]
duration of the clogging transition (τ): no effect
